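These data come from cells grown in 96-well plates and exposed to compound for 48 hours at five concentrations. GI50: concentration for 50% inhibition of growth.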 Calls of active or inactive are those of the source. No stated cut-off is given here; in the data, active = GI50 up to about 1.1 µM and inactive = higher.
Assays:
Test in all cases: inhibition of tumour cell growth, NCI panel, 48 h
[1] = tested on: DMS-114
[2] = tested on: SK-MEL-5
[3] = tested on: COLO 205
[4] = tested on: MOLT-4
[5] = tested on: NCI-H226
[6] = tested on: M14
[7] = tested on: SK-OV-3
[8] = tested on: LXFL 529
[9] = tested on: OVCAR-3
[10] = tested on: UO-31
[11] = tested on: ACHN
[12] = tested on: SNB-19
[13] = tested on: SNB-78
[14] = tested on: NCI-H460
[15] = tested on: HOP-92
[16] = tested on: OVCAR-4
[17] = tested on: KM-20L2
[18] = tested on: HOP-18
[19] = tested on: OVCAR-5
[20] = tested on: SF-539
[21] = tested on: SR
[22] = tested on: M19-MEL
[23] = tested on: A498
[24] = tested on: SF-295
[25] = tested on: NCI-H522
[26] = tested on: HT-29
[27] = tested on: DMS-273
[28] = tested on: K562
[29] = tested on: SK-MEL-2
[30] = tested on: LOX IMVI
[31] = tested on: OVCAR-8
[32] = tested on: Malme-3M
[33] = tested on: UACC-257
[34] = tested on: HL-60
[35] = tested on: U-251
[36] = tested on: HCT-15
[37] = tested on: NCI-H23
[38] = tested on: SN12C
[39] = tested on: HCC 2998
[40] = tested on: UACC-62
[41] = tested on: A549
[42] = tested on: RPMI-8226
[43] = tested on: SW-620
[44] = tested on: SK-MEL-28
[45] = tested on: CAKI-1
[46] = tested on: RXF 393
[47] = tested on: KM12
[48] = tested on: EKVX
[49] = tested on: DLD-1
[50] = tested on: HOP-62
[51] = tested on: TK-10
[52] = tested on: SF-268
[53] = tested on: IGROV-1
[54] = tested on: RXF 631
[55] = tested on: HCT-116
[56] = tested on: CCRF-CEM
[57] = tested on: SNB-75
[58] = tested on: XF498
[59] = tested on: 786-0

**Q.** How did the GI50 [1] turn out when `Cc1ccccc1OCC(COC(=O)Nc1ccccc1)OC(=O)Nc1ccccc1` (stereo unspecified) was run?
**A.** 42.6 µM (inactive)

**Q.** What about the GI50 [2] of the same compound?
**A.** > 100 µM (inactive)

**Q.** And the GI50 [3]?
**A.** 72.3 µM (inactive)

**Q.** What about the GI50 [4] of the same compound?
**A.** 3.49 µM (inactive)

**Q.** What about the GI50 [5] of the same compound?
**A.** 25.8 µM (inactive)

**Q.** And the GI50 [6]?
**A.** 28.1 µM (inactive)

**Q.** What about the GI50 [7] of the same compound?
**A.** 59.7 µM (inactive)

**Q.** And the GI50 [8]?
**A.** 45.9 µM (inactive)

**Q.** What about the GI50 [9] of the same compound?
**A.** 87.7 µM (inactive)

**Q.** What about the GI50 [10] of the same compound?
**A.** 34.6 µM (inactive)

**Q.** What about the GI50 [11] of the same compound?
**A.** > 100 µM (inactive)

**Q.** What about the GI50 [12] of the same compound?
**A.** 22.1 µM (inactive)

**Q.** And the GI50 [13]?
**A.** 22.2 µM (inactive)

**Q.** What about the GI50 [14] of the same compound?
**A.** 20.2 µM (inactive)

**Q.** What about the GI50 [15] of the same compound?
**A.** 10.9 µM (inactive)

**Q.** And the GI50 [16]?
**A.** 13.1 µM (inactive)

**Q.** What about the GI50 [17] of the same compound?
**A.** 52.2 µM (inactive)

**Q.** And the GI50 [18]?
**A.** 34.4 µM (inactive)

**Q.** And the GI50 [19]?
**A.** > 100 µM (inactive)

**Q.** What about the GI50 [20] of the same compound?
**A.** 4.15 µM (inactive)

**Q.** What about the GI50 [21] of the same compound?
**A.** 12.1 µM (inactive)

**Q.** And the GI50 [22]?
**A.** 31.1 µM (inactive)

**Q.** And the GI50 [23]?
**A.** 61.2 µM (inactive)

**Q.** What about the GI50 [24] of the same compound?
**A.** 51.3 µM (inactive)

**Q.** And the GI50 [25]?
**A.** 19.6 µM (inactive)

**Q.** What about the GI50 [26] of the same compound?
**A.** 31.6 µM (inactive)

**Q.** And the GI50 [27]?
**A.** 32.1 µM (inactive)

**Q.** What about the GI50 [28] of the same compound?
**A.** 4.05 µM (inactive)

**Q.** What about the GI50 [29] of the same compound?
**A.** 22 µM (inactive)

**Q.** And the GI50 [30]?
**A.** 15.1 µM (inactive)

**Q.** What about the GI50 [31] of the same compound?
**A.** 26.5 µM (inactive)

**Q.** What about the GI50 [32] of the same compound?
**A.** 30.9 µM (inactive)

**Q.** And the GI50 [33]?
**A.** > 100 µM (inactive)

**Q.** What about the GI50 [34] of the same compound?
**A.** 4.28 µM (inactive)

**Q.** What about the GI50 [35] of the same compound?
**A.** 38 µM (inactive)

**Q.** And the GI50 [36]?
**A.** > 100 µM

**Q.** What about the GI50 [37] of the same compound?
**A.** 54 µM (inactive)

**Q.** What about the GI50 [38] of the same compound?
**A.** 26.8 µM (inactive)

**Q.** And the GI50 [39]?
**A.** 83.8 µM (inactive)

**Q.** What about the GI50 [40] of the same compound?
**A.** 23.3 µM (inactive)

**Q.** What about the GI50 [41] of the same compound?
**A.** 32.7 µM (inactive)

**Q.** What about the GI50 [42] of the same compound?
**A.** 1.81 µM (inactive)

**Q.** What about the GI50 [43] of the same compound?
**A.** 52.8 µM (inactive)

**Q.** And the GI50 [44]?
**A.** > 100 µM (inactive)

**Q.** And the GI50 [45]?
**A.** 26.5 µM (inactive)

**Q.** And the GI50 [46]?
**A.** 7.24 µM (inactive)

**Q.** What about the GI50 [47] of the same compound?
**A.** 26.3 µM (inactive)

**Q.** What about the GI50 [48] of the same compound?
**A.** > 100 µM (inactive)

**Q.** And the GI50 [49]?
**A.** 28.8 µM (inactive)

**Q.** And the GI50 [50]?
**A.** 31.9 µM (inactive)

**Q.** And the GI50 [51]?
**A.** > 100 µM (inactive)

**Q.** And the GI50 [52]?
**A.** 50.9 µM (inactive)

**Q.** What about the GI50 [53] of the same compound?
**A.** > 100 µM (inactive)

**Q.** What about the GI50 [54] of the same compound?
**A.** 9.93 µM (inactive)

**Q.** What about the GI50 [55] of the same compound?
**A.** 15.8 µM (inactive)

**Q.** And the GI50 [56]?
**A.** > 100 µM (inactive)

**Q.** What about the GI50 [57] of the same compound?
**A.** 7.1 µM (inactive)

**Q.** `NC(=S)N/N=C(/CC(=O)c1ccc([N+](=O)[O-])cc1)C(=O)Nc1ncc([N+](=O)[O-])s1` was tested. Which GI50 [1] did it give?
**A.** 68.1 µM (inactive)

**Q.** What about the GI50 [2] of the same compound?
**A.** > 100 µM (inactive)

**Q.** What about the GI50 [3] of the same compound?
**A.** > 100 µM (inactive)

**Q.** And the GI50 [4]?
**A.** 30.7 µM (inactive)

**Q.** What about the GI50 [5] of the same compound?
**A.** > 100 µM (inactive)

**Q.** And the GI50 [6]?
**A.** > 100 µM (inactive)

**Q.** And the GI50 [8]?
**A.** 92.5 µM (inactive)

**Q.** What about the GI50 [9] of the same compound?
**A.** > 100 µM (inactive)

**Q.** And the GI50 [10]?
**A.** > 100 µM (inactive)

**Q.** What about the GI50 [11] of the same compound?
**A.** > 100 µM (inactive)

**Q.** And the GI50 [12]?
**A.** > 100 µM (inactive)

**Q.** What about the GI50 [13] of the same compound?
**A.** > 100 µM (inactive)

**Q.** What about the GI50 [14] of the same compound?
**A.** > 100 µM (inactive)

**Q.** What about the GI50 [15] of the same compound?
**A.** > 100 µM (inactive)

**Q.** And the GI50 [16]?
**A.** > 100 µM (inactive)

**Q.** What about the GI50 [17] of the same compound?
**A.** > 100 µM (inactive)

**Q.** And the GI50 [58]?
**A.** > 100 µM (inactive)

**Q.** What about the GI50 [19] of the same compound?
**A.** > 100 µM (inactive)

**Q.** What about the GI50 [22] of the same compound?
**A.** > 100 µM (inactive)

**Q.** What about the GI50 [24] of the same compound?
**A.** > 100 µM (inactive)

**Q.** And the GI50 [26]?
**A.** > 100 µM (inactive)

**Q.** And the GI50 [29]?
**A.** > 100 µM (inactive)

**Q.** And the GI50 [30]?
**A.** 61.7 µM (inactive)

**Q.** And the GI50 [31]?
**A.** > 100 µM (inactive)

**Q.** And the GI50 [32]?
**A.** > 100 µM (inactive)

**Q.** And the GI50 [33]?
**A.** > 100 µM (inactive)

**Q.** And the GI50 [34]?
**A.** 45.2 µM (inactive)

**Q.** What about the GI50 [35] of the same compound?
**A.** > 100 µM (inactive)

**Q.** And the GI50 [37]?
**A.** > 100 µM (inactive)

**Q.** What about the GI50 [38] of the same compound?
**A.** > 100 µM (inactive)

**Q.** What about the GI50 [39] of the same compound?
**A.** > 100 µM (inactive)

**Q.** What about the GI50 [40] of the same compound?
**A.** 52.7 µM (inactive)

**Q.** And the GI50 [41]?
**A.** > 100 µM (inactive)

**Q.** And the GI50 [42]?
**A.** > 100 µM (inactive)

**Q.** And the GI50 [43]?
**A.** > 100 µM (inactive)

**Q.** And the GI50 [44]?
**A.** > 100 µM (inactive)

**Q.** What about the GI50 [46] of the same compound?
**A.** > 100 µM (inactive)

**Q.** What about the GI50 [47] of the same compound?
**A.** > 100 µM (inactive)

**Q.** And the GI50 [48]?
**A.** > 100 µM (inactive)

**Q.** What about the GI50 [49] of the same compound?
**A.** > 100 µM (inactive)

**Q.** What about the GI50 [50] of the same compound?
**A.** > 100 µM (inactive)

**Q.** And the GI50 [51]?
**A.** > 100 µM (inactive)

**Q.** What about the GI50 [52] of the same compound?
**A.** > 100 µM (inactive)

**Q.** And the GI50 [53]?
**A.** > 100 µM (inactive)

**Q.** And the GI50 [54]?
**A.** > 100 µM (inactive)

**Q.** And the GI50 [55]?
**A.** > 100 µM (inactive)

**Q.** And the GI50 [56]?
**A.** 82.4 µM (inactive)

**Q.** What about the GI50 [57] of the same compound?
**A.** > 100 µM (inactive)

**Q.** And the GI50 [59]?
**A.** > 100 µM (inactive)

Source: ChEMBL document CHEMBL1201862, “PubChem BioAssay data set” (2004)
